As usually defined, the Km is the concentration of substrate that gives half-maximal velocity.

The conditions of experiment [1]: Needleman, Hypertension 7, 469 (1985), cited from earlier work.
Experiment [2] concerns the target T1, Enkephalinase (Rattus norvegicus, UniProt P07861).
T1 construct: Enkephalinase is partially purified from rat kidney; from tissue; host or cells: rat kidney (microvilli fraction), further purified by Mono Q anion exchange
T1 sequence (P07861 1-750): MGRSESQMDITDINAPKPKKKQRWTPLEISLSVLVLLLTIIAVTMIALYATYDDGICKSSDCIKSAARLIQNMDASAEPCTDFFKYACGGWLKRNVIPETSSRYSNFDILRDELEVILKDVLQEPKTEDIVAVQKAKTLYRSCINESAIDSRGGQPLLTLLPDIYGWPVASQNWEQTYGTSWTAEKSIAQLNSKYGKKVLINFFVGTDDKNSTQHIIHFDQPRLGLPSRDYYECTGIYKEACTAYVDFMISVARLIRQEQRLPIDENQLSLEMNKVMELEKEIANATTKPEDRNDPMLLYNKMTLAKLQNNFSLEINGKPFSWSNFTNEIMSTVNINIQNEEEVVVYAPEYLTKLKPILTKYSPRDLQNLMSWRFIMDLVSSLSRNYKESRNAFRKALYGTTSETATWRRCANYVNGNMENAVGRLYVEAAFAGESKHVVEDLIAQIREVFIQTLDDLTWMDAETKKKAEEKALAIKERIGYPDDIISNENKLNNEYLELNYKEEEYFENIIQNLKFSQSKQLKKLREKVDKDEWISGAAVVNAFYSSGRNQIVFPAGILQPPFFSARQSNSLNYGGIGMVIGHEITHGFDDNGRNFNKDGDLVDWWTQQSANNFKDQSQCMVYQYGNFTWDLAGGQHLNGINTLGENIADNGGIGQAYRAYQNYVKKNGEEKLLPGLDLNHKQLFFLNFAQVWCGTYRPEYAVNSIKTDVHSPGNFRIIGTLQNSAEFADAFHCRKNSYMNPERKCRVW
Briefly: Enkephalinase inhibition, fluorometric assay with dansyl-D-AlaGly(p-nitro)PheGly. The format is biochemical. To be noted: substrate of enkephalinase, 50 mM HEPES pH 7.4, 25° C. An excerpt: Enkephalinase is partially purified from rat kidney. The enzyme is extracted from the microvilli fraction by using Triton X-100 according to the method of Malfroy and Schwartz [Biol. Chem. 259, 14365-14370 (1984)] or by using a proteolytic treatment according to the method of Almenoff and Orlowski [Biochem. 22, 590-599 (1983)]. The enzyme is further purified by anion exchange chromatography (Mono Q™ column, Pharmacia) using a Pharmacia FPLC system. The enzyme activity may be measured by the fluorometric methods of Florentin et al. [
Anal. Biochem. 141, 62-69 (1984)] or of Almenoff and Orlowski [Neurochemistry 42, 151-157 (1984)]. The enzyme is assayed in 50 mM HEPES buffer (pH 7.4) in a 3.0 mL reaction volume containing 12 μM of the substrate dansyl-D-AlaGly(p-nitro)PheGly (Km =40μM) at 25° C. The substrate (and inhibitor) is added from a concentrated stock solution in DMSO (up to 0.1 mL DMSO final volume). The enzyme in a small volume (approximately 0.1 μg of FPLC purified protein) is added to initiate the reaction and the rate of fluorecense increase is recorded continuously using a fluorometer (excitation at 339 nm, emission at 562 nm).

In the case of “ANP: family of naturally-occurring peptides which are involved in the homeostatic regulation of blood pressure, as well as sodium and water levels”, in experiment [1] (affinities ranging from about), the “binding affinity, lower end of range” value was no less than 50 pM. For the same substance, in experiment [1] (affinities ranging to about), the “binding affinity, upper end of range” value is no more than 500 nM. As for dansyl-D-AlaGly(p-nitro)PheGly, the Michaelis constant (Km) in experiment [2] was 40 µM.

The values above are taken from patent US5472959A, “Carboxyalkyl derivatives useful as inhibitors of enkephalinase and ace” (Merrell Dow Pharmaceuticals Inc., priority 1994, dated 1995).
